Results taken from patent publication US5646188A, “Polyamine derivatives of 1-aminoindan” (priority 1995, dated 1997).

Columns and labels:
NMDA receptor = conditions: cited from earlier work
[1] = test system: voltage-sensitive calcium channel; conditions: cited from earlier work
In Vitro Cell Toxicity = conditions: rat, cerebellum cell culture
Procedure: The cerebellum was aseptically dissociated from 6 or 7-day old rat pups and placed in a 15 ml sterile plastic conical tube containing 3 ml of Dulbecco's modified Eagle's medium (DMEM) with a high glucose concentration ([…]) and 2 mM (v/v) L-glutamine and an antibiotic antimitotic mixture. The cerebella were then dissociated after 20-25 passages through a sterile 13 gauge, 10 cm long stainless steel needle attached to a 5 ml syringe with an inserted 45 micrometer pore nylon sieve. The dissociated cells were centrifuged at 200 g for 5 minutes. […] Cell viability was determined by the tryptan blue exclusion test.
Cells were plated at a density of 200/mm^2 on poly-L-lysine coated surfaces. Poly-L-lysine coated glass coverslips were prepared at least one hour in advance of plating by immersing sterile coverslips in sterile distilled water solution containing 15 microgram/ml poly-L-lysine, and washing in sterile water just prior. to use. […] After three days in culture, the media was replaced with media containing the desired test compound. Each test compound was tested in duplicate. Toxic-dose response was determined for each compound over a range from 0.005-1000 micromole. Four groups were run in each set of experiments;
Nerve cell survival was evaluated by phase contrast microscopy and tryptan blue staining after 24 hours.
Toxic dose-response curves were compiled using the protocol described above.

[2] = test system: ischemia induced nerve cell death; conditions: gerbils; Gilad G et al.; cited from earlier work
[3] = test system: Cultures of Dissociated Neonatal Rat Cerebellum; assay: Reversal of NMDA Induced Cell Death in cultures of dissociated neonatal rat cerebellum; type: cell-based; conditions: positive control, 0.01 micromoles + NMDA; cell survival minus the NMDA effect (30%)
Procedure: The cerebellum was aseptically dissociated from 6 or 7-day old rat pups and placed in a 15 ml sterile plastic conical tube containing 3 ml of Dulbecco's modified Eagle's medium (DMEM) with a high glucose concentration ([…]) and 2 mM (v/v) L-glutamine and an antibiotic antimitotic mixture. The cerebella were then dissociated after 20-25 passages through a sterile 13 gauge, 10 cm long stainless steel needle attached to a 5 ml syringe with an inserted 45 micrometer pore nylon sieve. The dissociated cells were centrifuged at 200 g for 5 minutes.
Cells were plated at a density of 200/mm^2 on poly-L-lysine coated surfaces. […] The plated cells were covered with enriched medium and incubated at 37° C. in an atmosphere of 5% CO2 in air and 97% humidity. […] Each test compound was tested in duplicate. Toxic-dose response was determined for each compound over a range from 0.005-1000 micromole. Four groups were run in each set of experiments;
I. Control, consisting of enriched media alone,
II. N-methyl-D-aspartate (NMDA, 1 mM for 3 hours) as the cytotoxic challenge,
III. Test compound plus NMDA, and
IV. Positive control, spermine, spermidine or putrescine (0.01 micromoles) plus NMDA.
Surviving cells in Culture are measured relative to control (100%) as described above. Percent protection is the Cell Survival for the test compound minus the NMDA effect. […] The Effective Protection was calculated as the percent of the Percent Protection (X) divided by the maximal protection value (e.g. X×100/70).

[4] = test system: pyramidal neurons throughout the CA1 layer of the anterior hippocampus; assay: Global Brain Ischemia In Gerbils; type: in vivo, mongolian gerbils; conditions: Meriones unguiculatus, Pyramidal neuron, 336 h; 10.0 mg/kg ip, 3 daily injections; 14 days post-ischemia; fraction of hippocampi protected; read-out: PERCENT PROTECTION
Procedure: Male mongolian gerbils, aged 2.5-5 months, housed 4-8 in a cage, were supplied freely with food and water and maintained at 24° C. with a 12 hour day/night cycle.
For surgery the animals were anesthetized with halothane (1.5% in 100% O2) and the common carotid arteries exposed bilaterally through a midline ventral neck incision. Each artery was clamped for 5 minutes with aneurysm clips to produce global brain ischemia. The anesthesia was discontinued upon clamping. After 5 minutes the clamps were removed and the wound closed with skin clips.
For treatment, the test compound or vehicle was injected intra-peritoneally(ip) in a volume of 50 microlitres of solvent per 10 g body weight. The first injection was given two minutes after clamp removal, and thereafter daily for the next 2 post-operative days (total of 3 injections).
Seven groups each of 4-8 animals were compared:
I. Control; (sham- or unoperated and saline treated),
II. Vehicle treated, unoperated (when solvent is other than saline),
III. Ischemia--untreated or saline treated),
IV. Ischemia--vehicle treated (when solvent is other than saline),
V. Ischemia--Test compound treated, one sub-group per concentration tested,
VI. Ischemia and pentobarbital (40 mg/kg) as positive control).
Analysis of neuronal damage was performed 14 days post-ischemia by counting pyramidal neurons throughout the CA1 layer of the anterior hippocampus in […] thick (paraffin) coronal brain sections stained with hematoxylin and erosin.
Percent Protection values represent the fraction of hippocampi protected from ischemia in a group of animals treated with the stated dose of compound.

Compound | EAA antagonism / PCP site of NMDA receptor (NMDA receptor) | voltage-sensitive calcium channel blocking [1] | CC50 at 24 h (In Vitro Cell Toxicity) [µM] | protecting against ischemia induced nerve cell death [2] | PERCENT PROTECTION [3] [%] | responders at 10 mg/kg [4] [%]
N=C(N)NCCCC(N)C(=O)NCCCNCCCN (stereo not drawn) [SFTX-33] | EAA antagonists capable of binding at the PCP site on the NMDA receptor | voltage-sensitive calcium channel blockers |  |  |  | 
NCCCCN [Putrescine, putrescine, reference compound] |  |  | 300 | activity | 0 | 41
